We go through 16 compounds from ChEMBL document CHEMBL1131437, “Resistance-modifying agents. 5. Synthesis and biological properties of quinazolinone inhibitors of the DNA repair enzyme poly(ADP-ribose) polymerase (PARP)” (J Med Chem, 1998).

By IC50 is commonly meant the concentration that inhibits the measured activity by half. Low readings indicate greater potency, high ones weaker potency.

The target in this experiment is Poly [ADP-ribose] polymerase 1 (Mus musculus, UniProt P11103). Kind of experiment: biochemical.
Chain of Poly [ADP-ribose] polymerase 1 (P11103 whole entry): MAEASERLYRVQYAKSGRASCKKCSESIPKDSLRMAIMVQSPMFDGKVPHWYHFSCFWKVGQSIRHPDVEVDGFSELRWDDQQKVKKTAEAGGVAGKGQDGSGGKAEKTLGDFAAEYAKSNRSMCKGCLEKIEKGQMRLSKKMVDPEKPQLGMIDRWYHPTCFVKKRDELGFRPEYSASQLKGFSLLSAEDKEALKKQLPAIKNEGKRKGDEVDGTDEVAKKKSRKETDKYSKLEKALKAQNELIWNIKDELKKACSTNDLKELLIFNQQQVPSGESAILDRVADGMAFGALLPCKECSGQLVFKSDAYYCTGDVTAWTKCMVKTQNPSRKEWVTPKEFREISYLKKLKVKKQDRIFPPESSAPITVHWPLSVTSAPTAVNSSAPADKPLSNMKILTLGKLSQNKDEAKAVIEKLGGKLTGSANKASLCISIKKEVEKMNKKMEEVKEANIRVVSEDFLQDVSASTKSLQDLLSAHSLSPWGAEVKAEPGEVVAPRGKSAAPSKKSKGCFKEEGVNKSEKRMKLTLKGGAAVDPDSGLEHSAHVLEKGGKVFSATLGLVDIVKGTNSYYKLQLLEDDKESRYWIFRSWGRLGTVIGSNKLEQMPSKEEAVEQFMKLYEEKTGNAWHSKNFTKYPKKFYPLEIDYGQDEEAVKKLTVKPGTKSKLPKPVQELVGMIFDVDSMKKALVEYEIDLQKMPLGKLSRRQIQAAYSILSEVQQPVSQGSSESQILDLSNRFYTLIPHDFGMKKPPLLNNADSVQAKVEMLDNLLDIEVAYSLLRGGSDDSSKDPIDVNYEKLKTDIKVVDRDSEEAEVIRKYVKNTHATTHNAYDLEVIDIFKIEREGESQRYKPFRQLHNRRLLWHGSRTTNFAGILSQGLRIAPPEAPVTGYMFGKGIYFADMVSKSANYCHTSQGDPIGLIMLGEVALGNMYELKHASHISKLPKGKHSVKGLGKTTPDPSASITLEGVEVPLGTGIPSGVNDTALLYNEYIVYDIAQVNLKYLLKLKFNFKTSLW

The structures appear in SMILES notation.

Description: Inhibition of the DNA repair Poly (ADP-ribose) polymerase 1, in permeabilised L1210 murine leukemia cells

The compound `Cc1cccc2c(O)nc(-c3ccc(C#N)cc3)nc12` gave an IC50 of 270 nM. `COc1cccc2c(O)nc(-c3ccc(C(F)(F)F)cc3)nc12` showed a 50% inhibitory concentration (IC50) of 39000 nM. Then `Cc1cccc2c(=O)[nH]c(-c3ccccc3)nc12`, with 870 nM. Then `COc1cccc2c(O)nc(-c3ccc([N+](=O)[O-])cc3)nc12`, with 850 nM; and `Cc1cccc2c(=O)[nH]c(-c3ccc(O)cc3)nc12`, with 220 nM; and `Nc1ccc(-c2nc(O)c3cccc(O)c3n2)cc1`, with 320 nM. Turning to `COc1ccc(-c2nc3c(C)cccc3c(=O)[nH]2)cc1`, it took 190 nM to reach half-maximal inhibition (IC50). Turning to `COc1cccc2c(=O)[nH]c(-c3ccc(N=[N+]=[N-])cc3)nc12`, it took 1930 nM to reach half-maximal inhibition (IC50).

Compound `COc1cccc2c(=O)n(C)c(C)nc12` displayed an IC50 of more than 100000 nM. Then `Cc1nc(O)c2cccc(C)c2n1`, with 390 nM; and `COc1cccc2c(O)nc(-c3ccc(N)cc3)nc12`, with more than 300 nM. Then `Cc1nc2c(O)cccc2c(=O)n1C`, with more than 100000 nM; and `COc1cccc2c(O)nc(-c3ccc(C#N)cc3)nc12`, with 1340 nM; and `Cc1cccc2c(O)nc(-c3ccc(C(F)(F)F)cc3)nc12`, with more than 10000 nM.

As to `Cc1cccc2c(O)nc(-c3ccc(N)cc3)nc12`, the half-inhibitory concentration (IC50) turned out to be 440 nM. As to `NC(=O)c1cccc(N)c1` [3-AMINOBENZAMIDE], the IC50 was 19100 nM.
